Measurements taken from patent US11433055B2, “Chromane monobactam compounds for the treatment of bacterial infections” (priority 2017, dated 2022).
Where a name gives a salt, the structure may show the parent alone.

Key:
Assay type in all cases: cell-based
Details in all cases: lowest concentration inhibiting 95% of bacterial growth; in the presence of β lactamase inhibitor (BLi, Relebactam); 22 hours, 35±2° C., OD600
[1] = test system: Pseudomonas aeruginosa expressing AmpC (CL5701)
Protocol: (§1) Antibiotic Activity: Determination of Growth Inhibitory Concentration
(§2) The concentrations of compounds required to inhibit the growth of various strains of bacteria were determined in an assay that assessed bacterial growth by measuring optical density at 600 nm (OD600). The bacterial strains tested included the clinical strains Escherichia coli expressing NDM-1 (CLB30016), Klebsiella pneumoniae expressing KPC-1 (CL6569), Acinetobacter baumannii expressing TEM-1, AmpC, and Oxa-24/40 (CL6188) and Pseudomonas aeruginosa expressing AmpC (CL5701). All compounds were tested in the presence of a β lactamase inhibitor (BLi, Relebactam) in 384-well microplates. The clinical strains were stored as frozen single use stocks, thawed and diluted into 1.1× cation-adjusted Mueller-Hinton II broth to achieve approximately 2×10^5 CFU/mL. Test compounds were dissolved in DMSO and diluted 1:50 in the assay, resulting in a final concentration range of 100 μM to 0.098 μM. On the day of the assay, 1 μL of test compound was added to the plate followed by 4 μL of 50 μg/mL BLi in MOPS buffer and 45 μL of diluted bacteria. Plates were centrifuged at 1000 rpm for 30 seconds, shaken at approximately 800 rpm for 1 minute, and incubated at 35±2° C. for 22 hours. The concentration of BLi used in the assay was […]. At the end of the incubation, absorbance at 600 nm was determined using a spectrophotometer. Inhibition was quantitated by identifying the lowest concentration of test compound that was required to inhibit 95% of the growth of the bacteria. The results for Examples 1-39 are reported in Table I, expressed as the concentration of compound that inhibited 95% of bacterial growth (Minimum Inhibitory Threshold Concentration; MITC95).

[2] = test system: Escherichia coli expressing NDM-1 (CLB30016)
Protocol: as §1, §2

[3] = test system: Klebsiella pneumoniae expressing KPC-1 (CL6569)
Protocol: as §1, §2

[4] = test system: Acinetobacter baumannii expressing TEM-1, AmpC, and Oxa-24/40 (CL6188)
Protocol: as §1, §2

SMILES	PA_CL5701 MITC95 [1] [µM]	EC_CLB30016 MITC95 [2] [µM]	KP_CL6569 MITC95 [3] [µM]	AB_CL6188 MITC95 [4] [µM]
CC1(C)[C@H](NC(=O)/C(=N\O[C@](C)(C(=O)O)[C@H]2CCc3cc(-c4ccc(NCCN)[n+](CC5CNC5)c4)ccc3O2)c2csc(N)n2)C(=O)N1OS(=O)(=O)[O-].O=CO [Example 14, (S)-3-((Z)-2-(((S)-1-((R)-6-(6-((2-aminoethyl)amino)-1-(azetidin-1-ium-3-ylmethyl)pyridin-1-ium-3-yl)chroman-2-yl)-1-carboxyethoxy)imino)-2-(2-aminothiazol-4-yl)acetamido)-2,2-dimethyl-4-oxoazetidin-1-yl Sulfate Formate]	12.5	12.5	0.7813	50
C[n+]1cc(-c2ccc3c(c2)CC[C@H]([C@](C)(O/N=C(\C(=O)N[C@@H]2C(=O)N(OS(=O)(=O)[O-])C2(C)C)c2csc(N)n2)C(=O)O)O3)ccc1CC(CN)CN.O=CO [Example 16, (3S)-3-((Z)-2-(((1S)-1-((2R)-6-(6-(3-amino-2-(ammonio-methyl)propyl)-1-methylpyridin-1-ium-3-yl)chroman-2-yl)-1-carboxyethoxy)imino)-2-(2-aminothiazol-4-yl)acetamido)-2,2-dimethyl-4-oxoazetidin-1-yl sulfate formate]	3.125	6.25	0.3906	3.125
CC1(C)[C@H](NC(=O)/C(=N\O[C@](C)(C(=O)O)[C@H]2CCc3cc(-c4cnc(NC[C@H](O)CN)[n+](CC5CNC5)c4)ccc3O2)c2csc(N)n2)C(=O)N1OS(=O)(=O)[O-].O=CO [Example 19, (S)-3-((Z)-2-(((S)-1-((R)-6-(2-(((R)-3-amino-2-hydroxy-propyl)amino)-1-(azetidin-1-ium-3-ylmethyl)pyrimidin-1-ium-5-yl)chroman-2-yl)-1-carboxyethoxy)imino)-2-(2-aminothiazol-4-yl)acetamido)-2,2-dimethyl-4-oxoazetidin-1-yl sulfate formate]	12.5	6.25	0.7813	12.5
CC1(C)[C@H](NC(=O)/C(=N\O[C@](C)(C(=O)O)[C@H]2CCc3cc(C4CN=C(NCCCN)NC4)ccc3O2)c2csc(N)n2)C(=O)N1OS(=O)(=O)O (stereo partly drawn) [Example 27, (2S)-2-((2R)-6-(2-((3-aminopropyl)amino)-1,4,5,6-tetrahydropyrimidin-5-yl)chroman-2-yl)-2-(((Z)-(1-(2-aminothiazol-4-yl)-2-(((S)-22-dimethyl-4-oxo-1-(sulfooxy)azetidin-3-yl)amino)-2-oxoethylidene)amino)oxy)propanoic Acid]	6.25	12.5	0.7813	12.5
CC1(C)[C@H](NC(=O)/C(=N\O[C@](C)(C(=O)O)[C@H]2CCc3cc(-c4cnc(NCCCN)nc4)ccc3O2)c2csc(N)n2)C(=O)N1OS(=O)(=O)O [Example 33, 3-((5-((R)-2-((S)-1-((((Z)-1-(2-aminothiazol-4-yl)-2-(((S)-2,2-dimethyl-4-oxo-1-(sulfooxy)azetidin-3-yl)amino)-2-oxoethylidene)amino)oxy)-1-carboxyethyl)chroman-6-yl)pyrimidin-2-yl)amino)propan-1-aminium Formate]	6.25	6.25	0.3906	3.125
C[n+]1cc(-c2ccc3c(c2)OCC(CO/N=C(\C(=O)N[C@@H]2C(=O)N(OS(=O)(=O)[O-])C2(C)C)c2csc(N)n2)C3)ccc1NCCN.O=C(O)C(F)(F)F (stereo partly drawn) [Example 38, mono((S)-3-((Z)-2-(2-aminothiazol-3-ium-4-yl)-2-((((S)-7-(6-((2-ammonioethyl)amino)-1-methylpyridin-1-ium-3-yl)chroman-3-yl)methoxy)imino)acetamido)-2,2-dimethyl-4-oxoazetidin-1-yl sulfate) mono(2,2,2-trifluoroacetate)]	6.25	6.25	0.3906	6.25
C[n+]1cc(-c2ccc3c(c2)OCC(CO/N=C(\C(=O)N[C@@H]2C(=O)N(OS(=O)(=O)[O-])C2(C)C)c2csc(N)n2)C3)ccc1NCCN.O=C(O)C(F)(F)F (single isomer, unassigned) [Example 37A]	3.13	12.5	0.78	12.5
CC1(C)[C@H](NC(=O)/C(=N\O[C@](C)(C(=O)O)[C@H]2CCc3cc(C4CN=C(NCCN)NC4)ccc3O2)c2csc(N)n2)C(=O)N1OS(=O)(=O)O.O=CO (stereo partly drawn) [Example 30, 2-((2-aminoethyl)amino)-5-((R)-2-((S)-1-((((Z)-1-(2-aminothiazol-4-yl)-2-(((S)-2,2-dimethyl-4-oxo-1-(sulfooxy)azetidin-3-yl)amino)-2-oxoethylidene)amino)oxy)-1-carboxyethyl)chroman-6-yl)-3,4,5,6-tetrahydropyrimidin-1-ium formate]	6.25	25	3.125	25
CC1(C)[C@H](NC(=O)/C(=N\O[C@](C)(C(=O)O)[C@H]2CCc3cc(-c4cnc(NC[C@@H](O)CN)[n+](CC5CNC5)c4)ccc3O2)c2csc(N)n2)C(=O)N1OS(=O)(=O)[O-].O=CO [Example 20, (S)-3-((Z)-2-(((S)-1-((R)-6-(2-(((S)-3-amino-2-hydroxy-propyl)amino)-1-(azetidin-1-ium-3-ylmethyl)pyrimidin-1-ium-5-yl)chroman-2-yl)-1-carboxyethoxy)imino)-2-(2-aminothiazol-4-yl)acetamido)-2,2-dimethyl-4-oxoazetidin-1-yl sulfate formate]	6.25	6.25	0.3906	6.25
CC1(C)[C@H](NC(=O)/C(=N\O[C@](C)(C(=O)O)C2CCc3cc(-c4cn(C[C@@H](O)CN)[n+](CCCN)c4)ccc3O2)c2csc(N)n2)C(=O)N1OS(=O)(=O)[O-] (mixture of isomers) [Example 5, (3 S)-3-((Z)-2-(((1 S)-1-(6-(1-((S)-3-amino-2-hydroxypropyl)-2-(3-aminopropyl)-1H-pyrazol-2-ium-4-yl)chroman-2-yl)-1-carboxyethoxy)imino)-2-(2-aminothiazol-4-yl)acetamido)-2,2-dimethyl-4-oxoazetidin-1-yl Sulfate]	50	100	6.25	25
C[n+]1cc(-c2ccc3c(c2)CC[C@H]([C@](C)(O/N=C(\C(=O)N[C@@H]2C(=O)N(OS(=O)(=O)[O-])C2(C)C)c2csc(N)n2)C(=O)O)O3)cn1CC1(N)CNC1 [Example 6, (S)-3-((Z)-2-(((S)-1-((R)-6-(1-((3-Aminoazetidin-3-yl)methyl)-2-methyl-1H-pyrazol-2-ium-4-yl)chroman-2-yl)-1-carboxyethoxy)imino)-2-(2-aminothiazol-4-yl)acetamido)-2,2-dimethyl-4-oxoazetidin-1-yl Sulfate]	100	100	12.5	100
